“Also recorded” adds a separate entry of the source.
Legend:
phospho-c-jun = assay: Immunohistochemistry of phospho-c-jun in mSC of CMT1A rats; type: in vivo, rat; details: compared to vehicle
Procedure: The dissected nerve was washed in L15 medium, fixed in Zamboni's fixative (Stefanini et al., 1967^4) for 10 min at room temperature, washed in PBS, and incubated in successive glycerol baths (15, 45, 60, 66% in PBS) for 18 to 24 h each before freezing at −20° C. The nerves were cut in small pieces in 66% glycerol and the perineurium sheet removed. Small bundles of fibers were teased in double-distilled water on Superfrost slides, dried overnight at room temperature, and the slides stored at −20° C. For immunostaining, the teased fibers were incubated for 1 h at room temperature in blocking solution (10% goat serum, 0.2% TritonX100, and 0.01% sodium azide in PBS). […]
While demyelinating diabetes peripheral neuropathy is a commonly acquired disease, demyelination is also the characteristic feature of a large number of inherited diseases called Charcot-Marie-Tooth diseases (CMT). […] Twelve weeks old CMT1A rats were daily treated with TRO19622 for 15 or 30 days and one day or two months after treatment, we analyzed MAPK demyelination pathways by western blot. […] Then we analyzed phospho-c-jun activation in mSC using immunohistochemistry. […] Next, we measured Schwann cell demyelination and g-ratio by toluidine blue staining on semi-thin sciatic nerve sections and on thin sections using electron microscopy.

VDAC1 [1] = biological target: T1, VDAC1 (Mus musculus, UniProt Q60932); assay: Cytoplasmic calcium imaging (GCaMP2, multiphoton) in mSC of mouse sciatic nerve; type: in vivo
T1 construct: strongly expressed in mSC mitochondria; from tissue; host or cells: myelinating Schwann cells (mSC) of the sciatic nerve of living mice (wild type; db/db and +/db in A10)
Procedure: (§1) Mice were anesthetized with isoflurane inhalation and placed under a Stemi2000 microscope (Zeiss). Incision area was shaved and cleaned using betadine solution. After incision, the gluteus superficialis and biceps femoris muscles were separated to reveal the cavity traversed by the sciatic nerve. The nerve was lift out using spatula and a thin glass needle filled with viral solution (8 μl) was introduced into the nerve with a micromanipulator. This solution was injected over 30 min with short pressure pulses using a Picospritzer III (Parker Hannifin) coupled to a pulse generator. After injection, the nerve was replaced into the cavity, the muscles were readjusted, and the wound was closed using clips (for further details see Gonzalez et al., 2014^3).
(§2) TRO19622 drug (Tocris bioscience, Ref. 2906) was diluted in ethanol to 20 mM and then, the solution was diluted in sterile PBS to 20 μM. TRO19622 treatments were realized by 3 mg/kg intraperitoneal (IP) injections of 20 mM solution or by intra sciatic nerve injections of 2 μl of drug solution 2 μM using a Hamilton syringe or a glass needle in sterile conditions 30 minutes before multiphoton image acquisitions or immunohistochemistry and demyelination studies respectively. Methyl jasmonate drug (Sigma-Aldrich, Ref. 392707) was diluted in 1 ml of sterile PBS to 1M or 3M. Methyl jasmonate treatments were realized by intra sciatic nerve injections of 1 μl of drug solution using a glass needle and micromanipulator in sterile conditions following the same virus injections procedure (see in vivo virus injection in the sciatic nerve method) two hours before multiphoton image acquisition. […] All drug concentrations were previously evaluated by Bordet et al, 2007^5; Goldin et al, 2008^6; Sharov et al, 2007^7.
(§3) First injected mouse was anesthetized with 5% of isoflurane a 1.5% of oxygen into the anesthesia system box (World Precision Instruments, Ref. EZ-B800) for 5 minutes. Anesthesia controls were realized^8. Then, mouse was placed in anesthesia mask and the incision area was shaved and cleaned with betadine and ethanol 70% solution. Incision was realized using a scalpel and the skin was retracted using forceps in order to expose the gluteus superficialis and bleeps femoris muscles. Next, the connective tissue that connects both muscles was cut and the sciatic nerve was gently lifted out using a spatula. A flexible bridge was slide below sciatic nerve and it was placed into a plastic first pool fixed to the bridge. Mouse was placed under the multiphoton microscope, the bridge was fixed using magnetic brackets to avoid physiological movement and mouse legs were fixed using clippers. Microscope dark box temperature is controlled to 37° C. during all time-lapse imaging. Finally, a second pool was fixed to the first pool using a drop of agarose low melting 3% (Promega, Ref. V2111) in Leibovitz's L15 medium (Gibco Life Technologies) and filled with deionized water to immerse the objectives 20× or 63× (Carl Zeiss Microscopy).
(§4) All time-lapse images were obtained with a multiphoton microscope Zeiss LSM 7 MP OPO. Mitochondria motility images were acquired by time-lapse recording of one image every five minutes during five hours at 920 nm. GCaMP2 and SypHer probe images were acquired by time-lapse recording of one image every fifteen minutes during five hours at 985 nm. Images were acquired to constant 1% of laser intensity to 100 msec of acquisition time with 512×512 resolution and 10 images of z-stack of 20 μm. Images were saved in Zeiss .czi format and processed using Image J program. For further details see Gonzalez et al., 201X^8
To characterize mitochondria physiology during the demyelination process we combined two in vivo methods. We used the nerve crush model to reliably induce demyelination in the mouse sciatic nerve and a viral approach^19 allowing the expression of different fluorescent probes selectively into mitochondria of myelinating Schwann cells (mSC) in mouse sciatic nerve. […]

[2] = cited from earlier work
VDAC1 [3] = biological target: T1, VDAC1; assay: Mitochondrial calcium imaging (mito-GCaMP2, multiphoton) in mSC of mouse sciatic nerve, nerve crush model; type: in vivo; details: mito-GCaMP2; VDAC1 silenced or drug given before crush
Procedure: as §1, §2, §3, §4
To characterize mitochondria physiology during the demyelination process we combined two in vivo methods. We used the nerve crush model to reliably induce demyelination in the mouse sciatic nerve and a viral approach^19 allowing the expression of different fluorescent probes selectively into mitochondria of myelinating Schwann cells (mSC) in mouse sciatic nerve.

T1 sequence (Q60932 14-296): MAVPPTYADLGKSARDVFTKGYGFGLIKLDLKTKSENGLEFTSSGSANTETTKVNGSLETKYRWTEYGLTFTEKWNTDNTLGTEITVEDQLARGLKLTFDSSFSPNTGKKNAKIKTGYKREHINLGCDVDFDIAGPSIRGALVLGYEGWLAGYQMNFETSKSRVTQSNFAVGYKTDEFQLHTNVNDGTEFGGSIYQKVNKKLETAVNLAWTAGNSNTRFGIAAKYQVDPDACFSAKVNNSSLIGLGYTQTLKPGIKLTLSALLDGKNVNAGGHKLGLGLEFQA

## CC(C)CCC[C@@H](C)[C@H]1CC[C@H]2[C@@H]3CCC4=C/C(=N\O)CC[C@]4(C)[C@H]3CC[C@]12C [TRO19622, (NZ)—N-[(8S,9S,10R,13R,14S,17R)-10,13-dimethyl-17-[(2R)-6-methylheptan-2-yl]-1,2,6,7,8,9,11,12,14,15,16,17-dodecahydrocyclopenta[a]phenanthren-3-ylidene]hydroxylamine]
phospho-c-jun
  phospho-c-jun amount in the mSC nucleus: strongly reduced
VDAC1 [1]; after nerve crush with VDAC1 silenced or blocked
  part of the calcium appearing in the cytoplasm after nerve crush that is not abolished (non-mitochondrial origin): 13%
VDAC1 [1]; cytoplasmic GCaMP2, after nerve crush
  presence of cytoplasmic calcium in mSC after crush: strong reduction
[2]
  safety in humans: safe
VDAC1 [3]
  mitochondrial calcium release in mSC after nerve crush: able to block calcium release from mitochondria; also recorded: completely abolished; also recorded: blocks mitochondrial calcium release

Source: patent US12053480B2, “Methods and pharmaceutical compositions for treating peripheral demyelinating diseases” (INSERM (INSTITUT NATIONAL DE LA SANTE ET DE LA RECHERCHE …, priority 2015, dated 2024)
